Columns and labels:
Caspase-1 = target: T1, Caspase-1 (Homo sapiens, UniProt P29466); design: species or system Escherichia coli;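 also: Caspase-1 enzyme inhibition assay with a peptide substrate; in other assays of this panel Not Active means under 50% inhibition at 10 µM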
T1 sequence (P29466 whole entry): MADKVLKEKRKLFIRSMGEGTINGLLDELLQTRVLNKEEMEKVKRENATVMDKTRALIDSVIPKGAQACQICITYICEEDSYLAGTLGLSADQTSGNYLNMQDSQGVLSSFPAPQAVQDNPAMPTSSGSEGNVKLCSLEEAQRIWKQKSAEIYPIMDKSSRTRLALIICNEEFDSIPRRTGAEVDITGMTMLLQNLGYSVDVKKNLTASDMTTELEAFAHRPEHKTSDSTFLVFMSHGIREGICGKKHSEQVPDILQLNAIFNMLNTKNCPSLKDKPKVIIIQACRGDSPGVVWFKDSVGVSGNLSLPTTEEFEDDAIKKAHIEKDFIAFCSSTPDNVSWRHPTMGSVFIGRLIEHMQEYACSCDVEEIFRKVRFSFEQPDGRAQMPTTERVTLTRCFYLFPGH

Substance-P receptor = Substance-P receptor (Homo sapiens, UniProt P25103); assay type: cell membranes, CHO, Membrane; conditions: cho; also: in other assays of this panel Not Active means under 50% inhibition at 10 µM
Melanocortin receptor 4 = Melanocortin receptor 4 (Homo sapiens, UniProt P32245); assay type: cell membranes, HEK293, Membrane; conditions: hek293; also: in other assays of this panel Not Active means under 50% inhibition at 10 µM
Carbonic anhydrase 2 = Carbonic anhydrase 2 (Homo sapiens, UniProt P00918); assay: DRUGMATRIX: Carbonic Anhydrase II enzyme inhibition (substrate: 4-Nitrophenyl acetate (4-NPA)); assay type: tissue-based, Erythrocyte; conditions: erythrocyte; Not Active = under 50% inhibition at 10 µM
Progesterone receptor = target: T2, Progesterone receptor (Bos taurus, UniProt Q690N0); assay: DRUGMATRIX: Progesterone radioligand binding (ligand: [3H] R-5020); assay type: tissue-based, Uterus; conditions: Not Active = under 50% inhibition at 10 µM
T2 sequence (Q690N0 whole entry): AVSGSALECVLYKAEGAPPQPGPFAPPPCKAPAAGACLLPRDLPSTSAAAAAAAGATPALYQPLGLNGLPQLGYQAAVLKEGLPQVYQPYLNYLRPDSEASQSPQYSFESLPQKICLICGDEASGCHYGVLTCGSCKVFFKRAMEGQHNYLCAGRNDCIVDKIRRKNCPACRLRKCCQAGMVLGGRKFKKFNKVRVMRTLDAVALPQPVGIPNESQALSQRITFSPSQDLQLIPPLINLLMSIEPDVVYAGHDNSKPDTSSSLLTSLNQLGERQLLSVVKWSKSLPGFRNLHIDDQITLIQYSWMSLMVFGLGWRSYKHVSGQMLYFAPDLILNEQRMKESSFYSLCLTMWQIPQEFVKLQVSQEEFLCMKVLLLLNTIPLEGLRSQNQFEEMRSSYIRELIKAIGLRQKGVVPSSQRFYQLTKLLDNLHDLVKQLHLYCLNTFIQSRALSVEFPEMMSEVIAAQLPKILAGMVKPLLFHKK

Leukotriene C4 synthase = target: T3, Leukotriene C4 synthase (Cavia porcellus, UniProt A6XA80); assay type: tissue-based, Lung;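 also: enzyme inhibition assay of leukotriene C4 synthase, using LTA4 as the substrate; in other assays of this panel Not Active means under 50% inhibition at 10 µM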
T3 sequence (A6XA80 whole entry): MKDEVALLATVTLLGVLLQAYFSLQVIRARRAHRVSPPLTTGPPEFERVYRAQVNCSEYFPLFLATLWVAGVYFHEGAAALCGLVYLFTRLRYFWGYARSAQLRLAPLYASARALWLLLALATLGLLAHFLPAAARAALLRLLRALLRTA

Chain of Substance-P receptor (P25103 whole entry): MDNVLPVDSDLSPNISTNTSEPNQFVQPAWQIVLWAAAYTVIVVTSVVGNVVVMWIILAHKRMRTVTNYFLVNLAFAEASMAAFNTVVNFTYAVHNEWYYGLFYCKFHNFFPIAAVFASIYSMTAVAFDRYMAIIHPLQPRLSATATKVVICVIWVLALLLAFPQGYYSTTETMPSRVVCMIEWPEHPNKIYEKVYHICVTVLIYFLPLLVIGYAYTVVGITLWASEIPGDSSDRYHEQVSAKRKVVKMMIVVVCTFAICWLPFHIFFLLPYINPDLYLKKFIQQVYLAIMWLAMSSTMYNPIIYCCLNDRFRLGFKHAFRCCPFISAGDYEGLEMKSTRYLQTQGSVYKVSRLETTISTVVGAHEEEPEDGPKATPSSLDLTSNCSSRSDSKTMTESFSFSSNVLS
Chain of Melanocortin receptor 4 (P32245 whole entry): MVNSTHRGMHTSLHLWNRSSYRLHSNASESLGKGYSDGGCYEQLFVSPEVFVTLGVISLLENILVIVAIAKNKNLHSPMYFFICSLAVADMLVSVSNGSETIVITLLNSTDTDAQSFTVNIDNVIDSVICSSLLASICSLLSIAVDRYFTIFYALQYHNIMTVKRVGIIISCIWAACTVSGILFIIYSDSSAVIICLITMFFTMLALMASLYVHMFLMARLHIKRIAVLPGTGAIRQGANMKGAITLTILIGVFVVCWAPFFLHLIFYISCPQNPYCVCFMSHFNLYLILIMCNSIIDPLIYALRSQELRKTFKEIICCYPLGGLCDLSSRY

Structure (SMILES)	IC50 (Caspase-1)	IC50 (Substance-P receptor)	IC50 (Melanocortin receptor 4)	IC50 (Carbonic anhydrase 2)	IC50 (Progesterone receptor)	IC50 (Leukotriene C4 synthase)	IC50 (Progesterone receptor; read-out: IC50)	Ki (Progesterone receptor; read-out: Ki)
CC(C)(C)NC(=O)[C@@H]1C[C@@H]2CCCC[C@@H]2CN1C[C@@H](O)[C@H](Cc1ccccc1)NC(=O)[C@H](CC(N)=O)NC(=O)c1ccc2ccccc2n1	Not Active	Not Active	Not Active	Not Active	Not Active	Not Active		
CC(=O)[C@@]1(O)CC[C@H]2[C@@H]3C[C@H](C)C4=CC(=O)CC[C@]4(C)[C@H]3CC[C@@]21C	Not Active	Not Active	Not Active	Not Active		Not Active	711 nM	93 nM
N[C@@H](Cc1ccc(N(CCCl)CCCl)cc1)C(=O)O	Not Active	Not Active	Not Active	Not Active	Not Active	Not Active		
CCCCc1oc2ccccc2c1C(=O)c1cc(I)c(OCCN(CC)CC)c(I)c1 [AMIODARONE]	Not Active	Not Active		Not Active	Not Active	Not Active		
OCCN(CCO)c1nc(N2CCCCC2)c2nc(N(CCO)CCO)nc(N3CCCCC3)c2n1 [DIPYRIDAMOLE]	Not Active	Not Active	Not Active	Not Active	Not Active	Not Active		
Cc1oncc1C(=O)Nc1ccc(C(F)(F)F)cc1 [LEFLUNOMIDE]	Not Active	Not Active	Not Active	Not Active	Not Active	Not Active		
c1ccc([C@H]2CN3CCSC3=N2)cc1 [LEVAMISOLE]	Not Active	Not Active	Not Active	Not Active	Not Active	Not Active		
N[C@@H](Cc1ccc(O)c(O)c1)C(=O)O [LEVODOPA]	Not Active	Not Active	Not Active	Not Active	Not Active	Not Active		
N[C@@H](Cc1cc(I)c(Oc2ccc(O)c(I)c2)c(I)c1)C(=O)O [LIOTHYRONINE]	Not Active	Not Active	Not Active	Not Active	Not Active	Not Active		
O=NN(CCCl)C(=O)NC1CCCCC1 [LOMUSTINE]	Not Active	Not Active	Not Active	Not Active	Not Active	Not Active		
CCOC(=O)N1CCC(=C2c3ccc(Cl)cc3CCc3cccnc32)CC1 [LORATADINE]	Not Active	Not Active	Not Active	Not Active	Not Active	Not Active		
Cn1ccnc1S [METHIMAZOLE]	Not Active	Not Active	Not Active	Not Active	Not Active	Not Active		
CC[C@@H](CO)NC(=O)[C@@H]1C=C2c3cccc4[nH]cc(c34)C[C@H]2N(C)C1 [METHYLERGONOVINE]	Not Active	Not Active	Not Active	Not Active	Not Active	Not Active		
COc1nc(C)nc(Cl)c1NC1=NCCN1 [MOXONIDINE]	Not Active	Not Active	Not Active	Not Active	Not Active	Not Active		
COc1c(C)c2c(c(O)c1C/C=C(\C)CCC(=O)O)C(=O)OC2 [MYCOPHENOLIC ACID]	Not Active	Not Active	Not Active	Not Active	Not Active	Not Active		
O=c1ncn2nc(Sc3ccc(F)cc3F)ccc2c1-c1c(Cl)cccc1Cl [NEFLAMAPIMOD]	Not Active	Not Active	Not Active	Not Active	Not Active	Not Active		

— ChEMBL document CHEMBL1909046, “DrugMatrix in vitro pharmacology data”
